Reference: patent US20230339981A1, “KRAS G12D MODULATING COMPOUNDS” (priority 2022, published 2023)

What was measured:
[1] = molecular target: GDP-loaded KRAS G12D (Homo sapiens (Human), UniProt P01116, G12D); test: KRAS G12D (GDP) biochemical assay (TR-FRET probe displacement); type: binding; conditions: 2 hours
In short: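 Compound pre-incubated 30 min with GDP-loaded KRAS G12D in 50 mM Hepes pH 7.4, 150 mM NaCl, 5 mM MgCl2, 0.005% Tween-20, then Eu-streptavidin and TR-FRET probe added. After 2 h at room temperature, TR-FRET ratio read; IC50 is 50% ratio decrease, sigmoidal fit.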

[2] = test system: GP2D (KRAS G12D) cells; test: 2D cell viability assay (CellTiter-Glo); type: cell-based; conditions: GP2d, 96 h, 4 days
In short: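 GP2D (KRAS G12D) cells, 1000/well in RPMI + 10% FBS, were plated onto compound (1:3 DMSO series) and grown 4 days at 37 °C, 5% CO2 in 2D. CellTiter-Glo luminescence was read; EC50 is the concentration giving 50% signal decrease, from sigmoidal fit.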

Chain of GDP-loaded KRAS G12D (P01116-2 other isoform, or with tags, fused parts or gaps G12D): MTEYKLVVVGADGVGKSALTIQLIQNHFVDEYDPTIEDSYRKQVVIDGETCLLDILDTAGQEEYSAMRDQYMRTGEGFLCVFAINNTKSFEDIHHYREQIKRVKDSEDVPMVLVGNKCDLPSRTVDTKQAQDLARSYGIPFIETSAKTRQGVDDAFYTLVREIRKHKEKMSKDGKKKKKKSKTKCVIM

Row | Structure (SMILES) | IC50 [1] | EC50 [2]
1 | C#Cc1c(F)ccc2cccc(-c3nc4c5c(nc(OC[C@@]67CCCN6[C@H](COc6cccc(S(F)(F)(F)(F)F)c6)CC7)nc5c3F)N3C[C@H]5CC[C@H](N5)[C@@H]3[C@@H](C)C4)c12 [Example 105, (5S,5aS,6S,9R)-2-(8-ethynyl-7-fluoronaphthalen-1-yl)-1-fluoro-5-methyl-12-(((3S,7aS)-3-((3-(pentafluoro-λ^6-sulfaneyl)phenoxy)methyl)tetrahydro-1H-pyrrolizin-7a(5H)-yl)methoxy)-4,5,5a,6,7,8,9,10-octahydro-3,10a,11,13,14-pentaaza-6,9-methanonaphtho[1,8-ab]heptalene] | 5.3 nM | 435 nM
2 | C#Cc1c(F)ccc2cc(O)cc(-c3nc4c5c(nc(OCC6(CN7CC[C@@H](C(F)(F)F)C7)CC6)nc5c3F)N3C[C@H]5CC[C@H](N5)[C@H]3CC4)c12 [Example 70, 5-ethynyl-6-fluoro-4-((5aR,6S,9R)-1-fluoro-12-((1-(((R)-3-(trifluoromethyl)pyrrolidin-1-yl)methyl)cyclopropyl)methoxy)-4,5,5a,6,7,8,9,10-octahydro-3,10a,11,13,14-pentaaza-6,9-methanonaphtho[1,8-ab]heptalen-2-yl)naphthalen-2-ol] | 0.1 nM | 1 nM
3 | C#Cc1c(F)ccc2cc(N)cc(-c3nc4c5c(nc(OC[C@@]67CCCN6C[C@H](F)C7)nc5c3F)N3C[C@H]5CC[C@H](N5)[C@@H]3[C@@H](C)C4)c12 [Example 196, 5-ethynyl-6-fluoro-4-((5S,5aS,6S,9R)-1-fluoro-12-(((2R,7aS)-2-fluorotetrahydro-1H-pyrrolizin-7a(5H)-yl)methoxy)-5-methyl-4,5,5a,6,7,8,9,10-octahydro-3,10a,11,13,14-pentaaza-6,9-methanonaphtho[1,8-ab]heptalen-2-yl)naphthalen-2-amine] | 0.1 nM | 1.8 nM
4 | C#Cc1c(F)ccc2cc(O)cc(-c3nc4c5c(nc(OC[C@@]67CCCN6[C@H](COCC(F)(F)F)CC7)nc5c3F)N3C[C@H]5CC[C@H](N5)[C@H]3CC4)c12 [Example 163, 5-ethynyl-6-fluoro-4-((5aR,6S,9R)-1-fluoro-12-(((3S,7aS)-3-((2,2,2-trifluoroethoxy)methyl)tetrahydro-1H-pyrrolizin-7a(5H)-yl)methoxy)-4,5,5a,6,7,8,9,10-octahydro-3,10a,11,13,14-pentaaza-6,9-methanonaphtho[1,8-ab]heptalen-2-yl)naphthalen-2-ol] | 0.1 nM | 5.1 nM
5 | C#Cc1c(F)ccc2cccc(-c3nc4c5c(nc(OC[C@@]67CCCN6[C@H](CSc6cc(C(F)(F)F)ncn6)CC7)nc5c3F)N3C[C@H]5CC[C@H](N5)[C@H]3CCC4)c12 [Example 201, (6aR,7S,10R)-2-(8-ethynyl-7-fluoronaphthalen-1-yl)-1-fluoro-13-(((3S,7aS)-3-(((6-(trifluoromethyl)pyrimidin-4-yl)thio)methyl)tetrahydro-1H-pyrrolizin-7a(5H)-yl)methoxy)-5,6,6a,7,8,9,10,11-octahydro-4H-3,11a,12,14,15-pentaaza-7,10-methanocyclohepta[4,5]cycloocta[1,2,3-de]naphthalene] | 0.02 nM | 10 nM
6 | C#Cc1c(F)ccc2cccc(-c3nc4c5c(nc(OC[C@@]67CCCN6[C@H](COc6cc(C(F)(F)F)ncn6)CC7)nc5c3F)N3C[C@H]5CC[C@H](N5)[C@H]3CCC4)c12 [Example 154, (6aR,7S,10R)-2-(8-ethynyl-7-fluoronanhthalen-1-yl)-1-fluoro-13-(((3S,7aS)-3-(((6-(trifluoromethyl)pyrimidin-4-yl)oxy)methyl)tetrahydro-1H-pyrrolizin-7a(5H)-yl)methoxy)-5,6,6a,7,8,9,10,11-octahydro-4H-3,11a,12,14,15-pentaaza-7,10-methanocyclohepta[4,5]cycloocta[1,2,3-de]naphthalene] | 0.1 nM | 1 nM
7 | C#Cc1c(F)ccc2cccc(-c3nc4c5c(nc(OC[C@@]67CCCN6C[C@H](F)C7)nc5c3F)N3C[C@H]5CC[C@H](N5)[C@H]3CC[C@@H]4C)c12 [Example 174, (4S,6aR,7S,10R)-2-(8-ethynyl-7-fluoronaphthalen-1-yl)-1-fluoro-13-(((2R,7aS)-2-fluorotetrahydro-1H-pyrrolizin-7a(5H)-yl)methoxy)-4-methyl-5,6,6a,7,8,9,10,11-octahydro-4H-3,11a,12,14,15-pentaaza-7,10-methanocyclohepta[4,5]cycloocta[1,2,3-de]naphthalene] | 5.7 nM | 100 nM
8 | C#Cc1c(F)ccc2cc(O)cc(-c3nc4c5c(nc(OCC6(CN7CCOCC7)CC6)nc5c3F)N3C[C@H]5CC[C@H](N5)[C@H]3CO4)c12 [Example 28, 5-ethynyl-6-fluoro-4-((5aS,6S,9R)-1-fluoro-12-((1-(morpholinomethyl)cyclopropyl)methoxy)-5a,6,7,8,9,10-hexahydro-5H-4-oxa-3,10a,11,13,14-pentaaza-6,9-methanonaphtho[1,8-ab]heptalen-2-yl)naphthalen-2-ol] | 0.6 nM | 7 nM
9 | C#Cc1c(F)ccc2cccc(-c3nc4c5c(nc(OCC6(CN7CC[C@H](OC(F)(F)F)C7)CC6)nc5c3F)N3C[C@H]5CC[C@H](N5)[C@H]3CCC4)c12 [Example 126, (6aR,7S,10R)-2-(8-ethynyl-7-fluoronaphthalen-1-yl)-1-fluoro-13-((1-(((S)-3-(trifluoromethoxy)pyrrolidin-1-yl)methyl)cyclopropyl)methoxy)-5,6,6a,7,8,9,10,11-octahydro-4H-3,11a,12,14,15-pentaaza-7,10-methanocyclohepta[4,5]cycloocta[1,2,3-de]naphthalene] | 2 nM | 94.4 nM
10 | Fc1ccc2cccc(-c3nc4c5c(nc(OCC6(CN7CCC(OC(F)(F)F)CC7)CC6)nc5c3F)N3C[C@H]5CC[C@H](N5)[C@H]3CC4)c2c1OC(F)(F)F [Example 120, (5aR,6S,9R)-1-fluoro-2-(7-fluoro-8-(trifluoromethoxy)naphthalen-1-yl)-12-((1-((4-(trifluoromethoxy)piperidin-1-yl)methyl)cyclopropyl)methoxy)-4,5,5a,6,7,8,9,10-octahydro-3,10a,11,13,14-pentaaza-6,9-methanonaphtho[1,8-ab]heptalene] | 337 nM | 1000 nM
11 | C#Cc1c(F)ccc2cccc(-c3nc4c5c(nc(OC[C@@]67CCCN6[C@H](COc6nccnc6C(F)F)CC7)nc5c3F)N3C[C@H]5CC[C@H](N5)[C@H]3CCC4)c12 [Example 207, (6aR,7S,10R)-13-(((3S,7aS)-3-(((3-(difluoromethyl)pyrazin-2-yl)oxy)methyl)tetrahydro-1H-pyrrolizin-7a(5H)-yl)methoxy)-2-(8-ethynyl-7-fluoronaphthalen-1-yl)-1-fluoro-5,6,6a,7,8,9,10,11-octahydro-4H-3,11a,12,14,15-pentaaza-7,10-methanocyclohepta[4,5]cycloocta[1,2,3-de]naphthalene] | 0.06 nM | 1 nM
12 | C#Cc1c(F)ccc2cc(O)cc(-c3nc4c5c(nc(OCC6(CN7CCC(Oc8ccnc(C(F)(F)F)n8)CC7)CC6)nc5c3F)N3C[C@H]5CC[C@H](N5)[C@H]3CC4)c12 [Example 180, 5-ethynyl-6-fluoro-4-((5aR,6S,9R)-1-fluoro-12-((1-((4-((2-(trifluoromethyl)pyrimidin-4-yl)oxy)piperidin-1-yl)methyl)cyclopropyl)methoxy)-4,5,5a,6,7,8,9,10-octahydro-3,10a,11,13,14-pentaaza-6,9-methanonaphtho[1,8-ab]heptalen-2-yl)naphthalen-2-ol] | 0.8 nM | 5.1 nM
13 | C#Cc1c(F)ccc2cc(O)cc(-c3c(Cl)c4c5c(nc(OC[C@@]67CCCN6C[C@H](F)C7)nc5c3F)N3C[C@H]5CC[C@H](N5)[C@H]3CC4)c12 [Example 204, 4-((1S,4R,14aR)-12-chloro-10-fluoro-8-(((2R,7aS)-2-fluorotetrahydro-1H-pyrrolizin-7a(5H)-yl)methoxy)-1,2,3,4,5,13,14,14a-octahydro-1,4-epiminoazepino[1′,2′:1,7]azepino[2,3,4-de]quinazolin-11-yl)-5-ethynyl-6-fluoronaphthalen-2-ol] | 0.1 nM | 1.3 nM
14 | C#Cc1c(F)ccc2cccc(-c3nc4c5c(nc(OC[C@@]67CCCN6C[C@@H](OC(C(F)(F)F)(C(F)(F)F)C(F)(F)F)C7)nc5c3F)N3C[C@H]5CC[C@H](N5)[C@H]3CC4)c12 (stereo in doubt) [Example 135, (5aR,6S,9R)-2-(8-ethynyl-7-fluoronaphthalen-1-yl)-1-fluoro-12-((cis-2-((1,1,1,3,3,3-hexafluoro-2-(trifluoromethyl)propan-2-yl)oxy)tetrahydro-1H-pyrrolizin-7a(5H)-yl)methoxy)-4,5,5a,6,7,8,9,10-octahydro-3,10a,11,13,14-pentaaza-6,9-methanonaphtho[1,8-ab]heptalene] | 88.1 nM | 100 nM
15 | C#Cc1c(F)ccc2cccc(-c3nc4c5c(nc(OCC67CCCN6CCC7)nc5c3F)N3C[C@H]5CC[C@H](N5)[C@@H]3[C@@H](C)C4)c12 [Example 157, (5S,5aS,6S,9R)-2-(8-ethynyl-7-fluoronaphthalen-1-yl)-1-fluoro-5-methyl-12-((tetrahydro-1H-pyrrolizin-7a(5H)-yl)methoxy)-4,5,5a,6,7,8,9,10-octahydro-3,10a,11,13,14-pentaaza-6,9-methanonaphtho[1,8-ab]heptalene] | 6.4 nM | 29.4 nM
